Assay results reported in the NIST ThermoML archive (doi:10.1021/je030102f).
± gives the expanded uncertainty stated by the source.

How the values were obtained:
[1] = 101.33 kPa, Liquid, vibrating tube
[2] = xn = mol fraction of the nth substance listed; conditions: 101.33 kPa, Liquid, vibrating tube

CC(C)=O [acetone]
[1]
Conditions	mass density [kg/m3]
283.15 K	801.669 ± 0.14
288.15 K	796.037 ± 0.14
293.15 K	790.355 ± 0.14
298.15 K	784.638 ± 0.14
303.14 K	778.876 ± 0.14
308.15 K	773.065 ± 0.14
313.14 K	767.205 ± 0.14
318.14 K	761.288 ± 0.14
323.14 K	755.314 ± 0.14

CC(C)=O [acetone] + CCC(=O)O
[2], x1 = 1
Conditions	mass density [kg/m3]
283.15 K	801.669 ± 0.14
288.15 K	796.037 ± 0.14
293.15 K	790.355 ± 0.14
298.15 K	784.638 ± 0.14
303.14 K	778.876 ± 0.14
308.15 K	773.065 ± 0.14
313.14 K	767.205 ± 0.14
318.14 K	761.288 ± 0.14
323.14 K	755.314 ± 0.14

CCC(=O)O [propanoic acid]
[1]
Conditions	mass density [kg/m3]
283.15 K	1004.11 ± 0.51
288.15 K	998.688 ± 0.51
293.15 K	993.261 ± 0.51
298.15 K	987.847 ± 0.51
303.14 K	982.44 ± 0.5
308.15 K	977.037 ± 0.5
313.14 K	971.635 ± 0.5
318.14 K	966.24 ± 0.49
323.15 K	960.843 ± 0.49

O [water]
[1]
Conditions	mass density [kg/m3]
283.15 K	999.691 ± 0.082
318.14 K	990.13 ± 0.084
323.14 K	988.003 ± 0.084

O [water] + CC(C)=O
[2], x2 = 0
Conditions	mass density [kg/m3]
283.15 K	999.691 ± 0.082
318.14 K	990.13 ± 0.084
323.14 K	988.003 ± 0.084

O [water] + CCC(=O)O
[2], x2 = 0
Conditions	mass density [kg/m3]
283.15 K	999.691 ± 0.082
318.14 K	990.13 ± 0.084
323.14 K	988.003 ± 0.084
